≈ marks a conversion by molar mass, not a printed value.
Key:
[1] = Microsomal clearance assay, rat liver microsomes; assay type: in vitro ADME; conditions: average value from two experiments, read-out: Rat liver microsomes intrinsic clearance (CLint)
Procedure: The microsomal stability of test compounds was evaluated using rat liver microsomes (BioIVT) with and without the cofactors nicotinamide adenine dinucleotide phosphate (NADPH) and uridine-diphosphate-glucuronic acid (UDPGA). Reactions were performed in a final volume of 250 μl pre-warmed (37° C.) 100 mM phosphate buffer containing 5 mM MgCl2, 0.025 mg/ml alamethicin, and 0.5 mg/ml rat liver microsomes. NADPH and UDPGA were included at 1 mM and 2 mM respectively, where appropriate. Reactions were started with the addition of 1 μM (final concentration) test compound. Verapamil was used as the positive control. Solutions were incubated in a water bath at 37° C. and aliquots collected at 0.5, 5, 15, 30 and 60 min. Reactions were stopped by the addition of 5 volumes of cold acetonitrile with internal standards (200 nM caffeine and 100 nM tolbutamide). Samples were centrifuged at 3220 g for 40 min. An aliquot of supernatant was diluted 1:1 In ultra-pure H20, then used for LC-MS/MS analysis. Peak areas were determined from extracted ion chromatograms. The slope value, k, was determined by linear regression of the natural logarithm of the remaining percentage of the parent drug vs. incubation time curve. The in vitro half-life (in vitro t1/2) was determined from the slope value: in vitro t1/2=0.693/k. Conversion of the in vitro t1/2 (min) into the in vitro intrinsic clearance (in vitro CLint, in μL/min/mg protein) was done using the following equation (mean of duplicate determinations): in vitro Clint=(0.693/t1/2)*(Vol of incubation (μl)/amount of protein (mg)).

mPTP [2] = assay: mPTP activity assay in isolated rat liver mitochondria (Ca2+ retention, Fluo5N, FLIPR); assay type: biochemical; conditions: isolated rat liver mitochondria; average value from multiple experiments (n ≥ 2)
Method in brief: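 Freshly isolated female Sprague Dawley rat liver mitochondria in pH 7.4 buffer with 10 mM succinate, 1 μM rotenone and 2 μM Fluo5N, preincubated 10 min at RT with compound (30 μM to 1 nM). CaCl2 bolus (75 μM) added; IC50 from 10 min fluorescence, normalised to DMSO and 5 μM cyclosporin A.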

mPTP [3] = assay: mPTP human platelet mitochondria membrane potential flow cytometry assay; assay type: cell-based; conditions: stimulated human platelets
Procedure: The mPTP cell based assay was performed using a mitochondria membrane potential flow cytometry assay in stimulated human platelets. Simulation of platelets results in the rapid influx of Ca^2+ across the platelet membrane. The Ca^2+ is then sequestered by mitochondria until the threshold for mPTP opening is reached, at which point the pore opens and the mitochondrial membrane potential is dissipated. Changes in mitochondria membrane potential due to mPTP opening can be quantified in live platelets using standard mitochondrial membrane potential dyes e.g. 3,3′-dihexyloxacarbocyanine Iodide; DiOC6 (3), enabling pharmacological characterisation of mPTP inhibitors.
Fresh human blood (20 ml) was collected from consented donors into 3.2% sodium citrate. Platelets were isolated by centrifugation at 200 g for 20 min at room temperature, then the platelet rich plasma layer transferred to a fresh tube. Prostaglandin 12 is added to the platelets at a final concentration of 20 ng/ml. After centrifugation at 640 g for 10 min, the platelet rich pellet was resuspended in 4 ml HEPES assay buffer (137 mM NaCl, 2.7 mM KCl, 11.9 mM NaHCO3, 0.42 mM NaH2PO4, 1 mM MgCl2, 5.5 mM glucose, 0.1% bovine serum albumin, 10 mM HEPES adjusted to pH 7.4) and stored on ice.
Test compounds were prepared from 10 mM stocks in DMSO and serially diluted in assay buffer containing 0.4% DMSO and 25 μl transferred into a 96 well plate. Platelets were loaded with the mitochondrial membrane potential dye DiOC6 (3) (3,3′-dihexyloxacarbocyanine Iodide; Invitrogen) at 200 nM for 30 min, then 50 μl plated into each well of the 96 well plate containing diluted test compound and incubated for 15 min. Control wells included DMSO (0.1% final concentration) only or 5 μM cyclosporin A. Platelets were then stimulation with the addition of assay buffer (25 μl) containing CaCl2, alpha thrombin and Convulxin to achieve a final concentrations of 2 mM, 0.017 U/ml and 0.167 μg/ml respectively and incubated for 14 min. The reaction was stopped by the addition of 25 μl 15 mM EDTA in assay buffer. The mitochondrial membrane potential across the population of platelets in each well was then quantified by flow cytometry using a Guava easyCyte 5 Benchtop Flow Cytometer with 3000 events per well. The percentage of platelets with a depolarised mitochondrial membrane potential was calculated for each well. A pIC50 for each compound was then calculated using a standard four parameter curve fit model (GraphPad Prism).

PBS solubility = assay type: physicochemical; conditions: aqueous buffer, kinetic from dmso stock; PBS pH 7.4, 2 hr at 25° C.
Method in brief: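 Compound from 10 mM DMSO stock was added in duplicate to FaSSIF or PBS (pH 7.4) and shaken at 1100 rpm for 2 hr at 25 °C. After filtration, the filtrate was quantified by LC-MS/MS with internal standard against a standard of known concentration.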

mPTP [4] = assay: mPTP activity assay in isolated rat brain mitochondria; assay type: biochemical; conditions: isolated rat brain mitochondria
Procedure: MPTP activity was measured in brain mitochondria freshly isolated from female Sprague Dawley (250 to 300 gram) rats. Anaesthetised rats were perfused in-situ with ˜40 ml cold Dulbecco's Phosphate Buffered Saline (DPBS), then brains dissected and transferred into 30 ml Isolation Buffer (225 mM mannitol, 75 mM sucrose, 1 mM EGTA, adjusted to pH 7.4 with 1 M NaOH). The brain was minced using tweezers and a scalpel into ˜5 mm pieces then transferred into a 50 ml Potterton Dounce homogenization tube on ice containing 10 ml ice-cold isolation buffer (as above with addition of Complete Protease inhibitor; 1 tablet per 50 ml buffer). Homogenisation was carried out using a teflon pestle at 1800 rpm. The slurry was centrifuged at 2000 g for 10 min at 4° C., then the supernatant centrifuged at 12,000 g for 9 min. The pellet was resuspended with a dounce homogeniser in isolation buffer as above but with the addition of 0.02% digitonin, centrifuged at 12,000 g for 11 min and finally resuspended in 5 ml modified isolation buffer (as above but with EGTA reduced to 0.1 mM).
Test compounds were prepared in 384 well polypropylene assay plates as described above for the liver mitochondria assay. A stock mitochondria/Fluo5N assay solution was prepared in 5.6 ml assay buffer (120 mM mannitol, 40 mM MOPS, 5 mM KH2PO4, 60 mM KCl, 10 mM pyruvate, 2 mM malate, 2 mM MgCl2, 20 μM ADP, 1.26 μM oligomycin A, adjusted to pH 7.4) supplemented with Fluo5N pentapotassium salt (2 μM) and 1 ml mitochondria suspension, then transferred (15 μl) into the assay plate containing test compounds and incubated for 10 min at RT. Assay plates were then transferred to a FLIPR Tetra plate reader (Molecular Devices). Dye fluorescence was then measured every 3 sec for a total of 10 min. After 12 sec, a 2.5 μl bolus of Ca2+(75 μM) was added from a source plate containing 675 μM CaCl2 in FLIPR assay buffer. IC50 values for test compounds were calculated using the fluorescence value collected at the 10 min timepoint with % inhibition calculated using the DMSO control and cyclosporin A values at […].

Row | SMILES | microsomal CLint at 1 µM [1] [µL/min/mg] | mPTP Rat liver pIC50* (mPTP [2]) | mPTP Human platelets pIC50 (mPTP [3]) | solubility at 2 h (PBS solubility) [µM] | mPTP Rat brain pIC50 (mPTP [4])
1 | O=C(/C=C/c1ccc2cn[nH]c2c1)NC1CCc2ccc(F)cc21 (stereo not shown) [Example 6, (E)-N-(6-fluoro-2,3-dihydro-1H-inden-1-yl)-3-(1H-indazol-6-yl)acrylamide] | 59 | 6.0 | 4.9 | 9.1 (≈ 2.92 µg/mL) | –
2 | Cc1c(F)cccc1NC(=O)/C=C/c1ccc2cn[nH]c2c1 [Comparative Example 1, (E)-N-(2-methyl-3-fluorophenyl)-3-(1H-indazol-6-yl)acrylamide, reference compound] | – | 8.0 | 6.9 | – | 7.6

From patent US12497359B2, “Acrylamide derivatives” (NRG Therapeutics Ltd, priority 2020, dated 2025)
